Source: patent US20070128217A1 (priority 2003, published 2007)

Legend:
[1] = system: antibodies in sera from SARS patients (sera 1a, 1b, 2, 6, 37, 62, London, SARS-yellow, SARS-green); format: binding, human; set-up: Binding of serum 6 to linear peptides of protein X1 of SARS-CoV Urbani / Binding of serum 37 to linear peptides of protein X1 of SARS-CoV Urbani / Binding of serum 6 to looped/cyclic peptide (PEPSCAN-ELISA) / Binding of serum 37 to looped/cyclic peptide (PEPSCAN-ELISA) / Binding of serum 37 to looped/cyclic peptides of protein X1 of SARS-CoV Urbani / Binding of serum 6 to linear peptides of protein X2 / Binding of serum 37 to linear peptides of protein X2 / Binding of serum 37 to looped/cyclic peptides of protein X2 of SARS-CoV Urbani / Binding of serum 6 to linear peptides of protein M of SARS-CoV Urbani / Binding of serum 37 to linear peptides of protein M of SARS-CoV Urbani / Binding of serum 6 to looped/cyclic peptides of protein M of SARS-CoV Urbani / Binding of serum 37 to looped/cyclic peptides of protein M of SARS-CoV Urbani / Binding of serum 6 to linear peptides of protein X3 of SARS-CoV Urbani / Binding of serum 37 to linear peptides of protein X3 of SARS-CoV Urbani / Binding of serum 37 to looped/cyclic peptides of protein X3 of SARS-CoV Urbani / Binding of serum 6 to linear peptides of protein X4 of SARS-CoV Urbani / Binding of serum 37 to linear peptides of protein X4 of SARS-CoV Urbani / Binding of serum 37 to looped/cyclic peptides of protein X4 of SARS-CoV Urbani / Binding of serum 6 to linear peptides of protein X5 of SARS-CoV Urbani / Binding of serum 37 to linear peptides of protein X5 of SARS-CoV Urbani / Binding of serum 37 to looped/cyclic peptides of protein X5 of SARS-CoV Urbani / Binding of serum 6 to linear peptides of protein N of SARS-CoV Urbani / Binding of serum 37 to linear peptides of protein N of SARS-CoV Urbani / Binding of serum 6 to linear peptide (PEPSCAN-ELISA) / Binding of serum 1a to looped/cyclic peptides of protein N of SARS-CoV Urbani / Binding of serum 1b to looped/cyclic peptides of protein N of SARS-CoV Urbani / Binding of serum 2 to looped/cyclic peptides of protein N of SARS-CoV Urbani / Binding of serum 6 to looped/cyclic peptides of protein N of SARS-CoV Urbani / Binding of serum 37 to looped/cyclic peptides of protein N of SARS-CoV Urbani / Binding of serum 62 to looped/cyclic peptides of protein N of SARS-CoV Urbani / Binding of serum London to looped/cyclic peptides of protein N of SARS-CoV Urbani / Binding of serum SARS-green to looped/cyclic peptides of protein N of SARS-CoV Urbani: unit not given here
[2] = system: rabbit serum obtained by immunizing a rabbit with the SARS-CoV strain Frankfurt 1; format: binding; set-up: Binding of a rabbit serum to linear peptides / Binding of a rabbit serum to looped peptides / Rabbit serum linear peptides / Rabbit serum looped peptides / Binding of a rabbit serum to linear peptides of protein N of SARS-CoV Urbani (Rabbit serum linear peptides) / Binding of a rabbit serum to looped/cyclic peptides of protein N of SARS-CoV Urbani (Rabbit serum looped peptides): unit not given here
[3] = system: control sera (pooled serum of ten healthy LUMC hospital workers; commercial negative donor pooled serum from the Dutch bloodbank); format: binding, human; set-up: Binding of Control serum LUMC to linear peptides / Binding of Control serum Blood-bank to linear peptides / Binding of Control serum LUMC to looped peptides / Binding of Control Serum Blood-Bank to Looped peptides / Binding of Control serum LUMC to linear peptides of the protein M of SARS-CoV Urbani / Binding of Control serum Blood-bank to linear peptides of the protein M of SARS-CoV Urbani / Binding of Control serum LUMC to looped peptides of the protein M of SARS-CoV Urbani / Binding of Control Serum Blood-Bank to Looped peptides of the protein M of SARS-CoV Urbani: unit not given here

SCELYHYQECVRGTT
Binding of serum 1a to linear peptides of protein X4 of SARS-CoV Urbani [1]: 0.8 | Binding of serum 1a to looped/cyclic peptides of protein X4 of SARS-CoV Urbani [1]: 0.5 | Binding of serum 1b to linear peptides of protein X4 of SARS-CoV Urbani [1]: 0.6 | Binding of serum 1b to looped/cyclic peptides of protein X4 of SARS-CoV Urbani [1]: 0.4 | Binding of serum 2 to linear peptides of protein X4 of SARS-CoV Urbani [1]: 0.4 | Binding of serum 2 to looped/cyclic peptides of protein X4 of SARS-CoV Urbani [1]: 0.5 | Binding of serum 6 to linear peptides of protein X4 of SARS-CoV Urbani [1]: 0.5 | Binding of serum 6 to looped/cyclic peptides of protein X4 of SARS-CoV Urbani [1]: 0.5 | Binding of serum 37 to linear peptides of protein X4 of SARS-CoV Urbani [1]: 0.7 | Binding of serum 37 to looped/cyclic peptides of protein X4 of SARS-CoV Urbani [1]: 0.6 | Binding of serum 62 to linear peptides of protein X4 of SARS-CoV Urbani [1]: 0.6 | Binding of serum 62 to looped/cyclic peptides of protein X4 of SARS-CoV Urbani [1]: 0.5 | Binding of serum London to linear peptides of protein X4 of SARS-CoV Urbani [1]: 0.8 | Binding of serum London to looped/cyclic peptides of protein X4 of SARS-CoV Urbani [1]: 0.3 | Binding of serum SARS-green to linear peptides of protein X4 of SARS-CoV Urbani [1]: 0.5 | Binding of serum SARS-green to looped/cyclic peptides of protein X4 of SARS-CoV Urbani [1]: 0.2 | Binding of serum SARS-yellow to linear peptides of protein X4 of SARS-CoV Urbani [1]: 0.2 | Binding of serum SARS-yellow to looped/cyclic peptides of protein X4 of SARS-CoV Urbani [1]: 0.2 | Rabbit serum linear peptides [2]: 0.4 | Rabbit serum looped peptides [2]: 0.0 | Binding of Control Serum Blood-Bank to Looped peptides [3]: 0.6 | Binding of Control serum Blood-bank to linear peptides [3]: 0.5 | Binding of Control serum LUMC to linear peptides [3]: 0.3 | Binding of Control serum LUMC to looped peptides [3]: 0.8

SFRLFARTRSMWSFN
Binding of serum 1a to linear peptides of protein M of SARS-CoV Urbani [1]: 0.8 | Binding of serum 1a to looped/cyclic peptides of protein M of SARS-CoV Urbani [1]: 0.6 | Binding of serum 1b to linear peptides of protein M of SARS-CoV Urbani [1]: 0.7 | Binding of serum 1b to looped/cyclic peptides of protein M of SARS-CoV Urbani [1]: 0.5 | Binding of serum 2 to linear peptides of protein M of SARS-CoV Urbani [1]: 0.5 | Binding of serum 2 to looped/cyclic peptides of protein M of SARS-CoV Urbani [1]: 0.5 | Binding of serum 6 to linear peptides of protein M of SARS-CoV Urbani [1]: 0.2 | Binding of serum 6 to looped/cyclic peptides of protein M of SARS-CoV Urbani [1]: 0.8 | Binding of serum 37 to linear peptides of protein M of SARS-CoV Urbani [1]: 0.8 | Binding of serum 37 to looped/cyclic peptides of protein M of SARS-CoV Urbani [1]: 0.6 | Binding of serum 62 to linear peptides of protein M of SARS-CoV Urbani [1]: 0.7 | Binding of serum 62 to looped/cyclic peptides of protein M of SARS-CoV Urbani [1]: 0.6 | Binding of serum London to linear peptides of protein M of SARS-CoV Urbani [1]: 0.3 | Binding of serum London to looped/cyclic peptides of protein M of SARS-CoV Urbani [1]: 0.2 | Binding of serum SARS-green to linear peptides of protein M of SARS-CoV Urbani [1]: 0.4 | Binding of serum SARS-green to looped/cyclic peptides of protein M of SARS-CoV Urbani [1]: 0.3 | Binding of serum SARS-yellow to linear peptides of protein M of SARS-CoV Urbani [1]: 0.1 | Binding of serum SARS-yellow to looped/cyclic peptides of protein M of SARS-CoV Urbani [1]: 0.5 | Rabbit serum linear peptides [2]: 0.8 | Rabbit serum looped peptides [2]: 0.2 | Binding of Control Serum Blood-Bank to Looped peptides of the protein M of SARS-CoV Urbani [3]: 0.7 | Binding of Control serum Blood-bank to linear peptides of the protein M of SARS-CoV Urbani [3]: 0.6 | Binding of Control serum LUMC to linear peptides of the protein M of SARS-CoV Urbani [3]: 0.4 | Binding of Control serum LUMC to looped peptides of the protein M of SARS-CoV Urbani [3]: 0.6
